Tests used:
[1] = tested on: Akt phosphorylation in PC3-ML cells; experiment: Akt phosphorylation in PC3-ML cells (Western blot); type: cell-based, human
Protocol: Bone marrow samples from normal male donors (ages 18-45) were supplied by Cambrex (Poietics™ Donor Program). Samples were centrifuged at 1,500 rpm in order to separate the soluble and cellular phases. The supernatant was filtered using 0.8 μm and 0.22 μm filters in succession. 50 μl of bone marrow aspirate was administered to cells in 1 ml of medium (1:20 final dilution).
For experiments performed in the presence of serum, cells were cultured in DMEM supplemented with 10% FBS and 50 μg/ml gentamycin for 24 hours prior to exposure to bone marrow. For experiments in the absence of serum (starved cells), cells were washed twice with PBS, the growth medium was replaced with serum-free DMEM, and the cells were incubated for 4 hours prior to exposure to bone marrow preparations. When used, AG-1296, a specific inhibitor of PDGF receptors (Rice et al., 1999, Amer. J. Path. 155, 213-21) was added to cultures 30 min. prior to exposure to bone marrowaspirate. IMC-3G3 antibodies were administered as described at pre-treatment times as stated below.

[2] = tested on: SKLMS-1 cells; experiment: PDGF-AA-induced Akt and MAPK phosphorylation in SKLMS-1 cells; type: cell-based, human; settings: PDGF-AA stimulation of SKLMS-1 cells
Protocol: (§1) Cells were seeded in six-well Falcon tissue culture plates (250,000 cells per well) and allowed to grow overnight. Wells were then rinsed and incubated in serum-free medium. After an overnight incubation to render cells quiescent, the cells were treated with antibodies for 30 minutes at 37° C. followed by addition of PDGF-AA or PDGF-BB and incubation for an additional 10 minutes at 37° C. Cells were then detached and lysed in 200 μL lysis buffer (50 mmol/L Tris-HCl (pH 8.0), 1% Triton X-100, 150 mmol/L NaCl, 1 mmol/L EDTA, 0.1% SDS, 1 mmol/L sodium orthovanadate, and protease inhibitors (Complete Mini, Roche, Mannheim, Germany)). Cell lysates were analyzed by SDS-PAGE and Western blotting using enhanced chemiluminescence reagents and Hyperfilm (Amersham Biosciences).
(§2) Human tumor cell lines expressing PDGFRα were tested to determine the affects of the human anti-PDGFRα antibody on malignant growth in in vitro and in vivo systems. Two such tumor cell lines that express PDGFRα as determined by flow cytometry are SKLMS-1 (leiomyosarcoma) and U118 (glioblastoma). These cell lines also respond to ligand in mitogenic assays and form tumors in mice. SKLMS-1 has the potential for not only paracrine but also autocrine stimulation.

[3] = tested on: U118 cells; experiment: PDGF-AA-induced downstream-effector phosphorylation in U118 cells; type: cell-based, human
Protocol: as §1, §2

[4] = tested on: U118 cells; experiment: PDGF-stimulated [3H]thymidine incorporation in U118 cells; type: cell-based, human; settings: at 66 nmol/L
Protocol: (§3) The ant-PDGFRα monoclonal antibody was tested for its ability to block PDGFAA-induced mitogenesis of PAE Rα cells. Cells were seeded in 96-well tissue culture plates (1×10^4 cells per well) and grown overnight in 100 μL medium per well. The wells were then rinsed with serum-free medium and cells were serum starved overnight with 75 μL serum-free medium added to each well. IgG was added (25 μL/well) and the plates were incubated for 30 minutes at 37° C. PDGF-AA or PDGF-BB (25 μL/well) was then added and plates were incubated for 18 to 20 hours at 37° C. Plates were incubated for an additional 4 hours after each well received 0.25 μCi [^3H]thymidine (25 μL/well). Antibody, PDGF, and [^3H]thymidine were all diluted in serum-free medium. Cells were then washed with PBS plus 1% bovine serum albumin and detached by treatment with trypsin (100 μL/well). […] After processing the filter, DNA incorporated radioactivity was determined on a scintillation counter (Wallac Microbeta, model 1450).
(§4) Human tumor cell lines expressing PDGFRα were tested to determine the affects of the human anti-PDGFRα antibody on malignant growth in in vitro and in vivo systems. Two such tumor cell lines that express PDGFRα as determined by flow cytometry are SKLMS-1 (leiomyosarcoma) and U118 (glioblastoma). […]

[5] = tested on: SKLMS-1 cells; experiment: PDGF-stimulated [3H]thymidine incorporation in SKLMS-1 cells; type: cell-based, human
Protocol: as §3, §4

[6] = tested on: glioblastoma (U118) xenograft; experiment: U118 glioblastoma s.c. xenograft growth; type: in vivo, athymic nude mice
From the text: (§5) S.c. tumor xenografts were established by injecting 10×10^6 SKLMS-1 or U118 cells mixed in Matrigel (Collaborative Research Biochemicals, Bedford, Mass.) into female athymic nude mice (Crl:NU/NU-nuBR, Charles River Laboratories, Wilmington, Mass.). Tumors were allowed to reach a mean tumor volume (π/6×longest length×perpendicular width^2) of about 400 mm^3. The mice were randomized into five groups (n=12) and treated by i.p. injection twice weekly for the duration of the study. Group 1 mice were treated with vehicle control (0.9% NaCl, USP for Irrigation, B/Braun). Groups 2 to 4 mice were treated with 6, 20, and 60 mg/kg of the instant anti-PDGFRα antibody. Group 5 mice were treated with 60 mg/kg human IgG (Sigma). Groups treated with 6, 20, or 60 mg/kg anti-PDGFRα antibody or human IgG were given 21.4, 71.4, and 214 mg/kg loading doses, respectively. The loading doses were calculated to achieve a steady state plasma concentration from the first dose (elimination half-life, 7 days) using a dosing regimen of twice weekly. Tumor volumes were evaluated twice weekly and tumor growth in the treatment groups was compared with a repeated measures ANOVA.
(§6) Resected tumors were fixed in QDL fixative at 4° C. for 24 hours. After paraffin embedding and sectioning at 4 μm, formalin-fixed sections were stained with Mayer's H&E (Richard Allen, Kalamazoo, Mich.).

[7] = tested on: leiomyosarcoma (SKLMS-1) xenograft; experiment: SKLMS-1 leiomyosarcoma s.c. xenograft growth; type: in vivo, athymic nude mice
From the text: as §5, §6

[8] = Elimination half-life used for loading dose calculation; set-up: species or system mice; settings: mouse, in vivo
From the text: as §5

[9] = target: T1, PDGFRα (Homo sapiens, UniProt P16234); experiment: Ligand-induced PDGFRα tyrosine phosphorylation in PAE Rα cells; type: cell-based, porcine aortic endothelial cells stably expressing PDGFRα; set-up: expressed in transfected cells; host or cells: porcine aortic endothelial cells (PAE Rα)
T1 sequence (P16234 24-1089): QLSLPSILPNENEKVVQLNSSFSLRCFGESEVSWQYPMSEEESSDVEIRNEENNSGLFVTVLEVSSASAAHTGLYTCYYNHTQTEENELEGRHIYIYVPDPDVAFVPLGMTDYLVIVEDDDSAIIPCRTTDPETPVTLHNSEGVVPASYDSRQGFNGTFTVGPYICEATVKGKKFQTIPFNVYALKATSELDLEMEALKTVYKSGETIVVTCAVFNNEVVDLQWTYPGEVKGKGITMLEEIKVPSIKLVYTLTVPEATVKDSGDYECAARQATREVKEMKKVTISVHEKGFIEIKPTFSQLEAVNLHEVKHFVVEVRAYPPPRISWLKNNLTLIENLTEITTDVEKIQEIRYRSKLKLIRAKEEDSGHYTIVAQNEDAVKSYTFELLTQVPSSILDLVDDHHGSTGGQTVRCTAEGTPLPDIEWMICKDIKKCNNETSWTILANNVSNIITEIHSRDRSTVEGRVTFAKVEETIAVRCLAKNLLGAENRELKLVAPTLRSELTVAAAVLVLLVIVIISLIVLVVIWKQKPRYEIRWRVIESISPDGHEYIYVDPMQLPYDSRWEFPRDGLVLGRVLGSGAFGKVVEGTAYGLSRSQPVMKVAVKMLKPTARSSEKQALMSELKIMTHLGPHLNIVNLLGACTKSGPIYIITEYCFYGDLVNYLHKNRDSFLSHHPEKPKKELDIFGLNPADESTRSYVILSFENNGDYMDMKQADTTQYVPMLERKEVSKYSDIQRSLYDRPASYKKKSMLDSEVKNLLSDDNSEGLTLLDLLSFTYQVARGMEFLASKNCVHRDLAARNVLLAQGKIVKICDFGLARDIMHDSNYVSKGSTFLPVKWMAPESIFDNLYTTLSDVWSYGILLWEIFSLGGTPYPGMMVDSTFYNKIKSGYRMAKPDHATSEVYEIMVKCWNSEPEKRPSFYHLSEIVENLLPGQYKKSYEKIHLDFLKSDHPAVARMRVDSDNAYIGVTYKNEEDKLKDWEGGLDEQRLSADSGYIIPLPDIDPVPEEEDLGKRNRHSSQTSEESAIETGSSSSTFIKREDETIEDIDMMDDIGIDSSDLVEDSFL
Protocol: as §1

[10] = target: T1, PDGFRα; experiment: PDGFRα phosphotyrosine level in U118 tumors in vivo; set-up: Two such tumor cell lines that express PDGFRα as determined by flow cytometry are SKLMS-1 (leiomyosarcoma) and U118 (glioblastoma); endogenous in cells; host or cells: U118 human glioblastoma cells grown as s.c. xenograft tumors in athymic nude mice; species or system mice with U118 tumors; settings: 214 mg/kg loading dose, 60 mg/kg 72 hours later; harvested at 168 hours; relative to human IgG control
Protocol: The level of receptor phosphotyrosine in U118 tumors was evaluated one week after treatment with anti-PDGFRα antibody or human IgGt. Mice with established U118 tumors (500 mm^3) were treated with a 214 mg/kg loading dose followed 72 hours later by a 60 mg/kg maintenance dose of antibody. Tumors were harvested from mice one week (168 hours) after the first antibody injection (at a time before tumor regression is observed on average; see FIG. 18A) and homogenized in phosphorylation assay lysis buffer (see above). The lysates were centrifuged twice at 14,000 rpm and the protein concentration for the collected supernatant was determined (Bio-Rad protein assay, Bio-Rad, Hercules, Calif.). Lysate (4 mg) from each sample was immunoprecipitation using anti-PDGFRα antibody. Immunoprecipitated human PDGFRα was then immunoblotted with either an anti-PDGFR or anti-phosphotyrosine antibody.

## IMC-3G3: human anti-PDGFRα monoclonal antibody; heavy chain variable region SEQ ID NO:8, light chain variable region SEQ ID NO:16
[1]; 20 μg/ml, pre-incubation 30 minutes, 30 ng/ml PDGF-BB
  effect on PDGF-BB stimulated Akt phosphorylation: neutralized
[1]; 30-minute incubation time
  inhibition of bone marrow induced Akt phosphorylation: about 40%
[1]; bone marrow induced
  inhibitory effect on Akt phosphorylation, 120-minute vs 30-minute preincubation: significantly more effective
[2]
  inhibition of Akt phosphorylation: 100%
  inhibition of MAPKs phosphorylation: about 80%
[3]
  inhibition of phosphorylation in U118 cells: effective inhibitor of phosphorylation
[4]
  inhibition of PDGF-BB-stimulated mitogenic response: 40%
[5]
  PDGF-BB-stimulated mitogenic response: inhibited
[6]; 6 mg/kg
  tumor regression: 4 of 12
[6]; 6 mg/kg i.p. twice weekly
  % T/C at end of study: 67%
[6]; 20 mg/kg
  tumor regression: 5 of 11
[6]; 20 mg/kg i.p. twice weekly
  % T/C at end of study: 63%
[6]; 60 mg/kg
  tumor regression: 10 of 12
[6]; 60 mg/kg i.p. twice weekly
  % T/C at end of study: 35%
[6]; 60 mg/kg, compared with saline-control group
  histologic examination of xenografts: fewer viable tumor cells
[7]; 6 mg/kg i.p. twice weekly
  final % TIC: 66%
[7]; 20 mg/kg i.p. twice weekly
  final % TIC: 57%
[7]; 60 mg/kg i.p. twice weekly
  final % TIC: 31%
[7]; 6, 20 and 60 mg/kg
  tumor regressions: no tumor regressions
[7]; day 25, compared with saline-control group
  histologic examination of xenografts: reduction in the amount of viable tumor cells and cellular packing
[8]
  elimination half-life: 170 h
[9]
  PDGF-BB-induced receptor phosphorylation: near background levels
[9]; read-out: concentration for 50% inhibition of PDGFRα phosphorylation
  IC50: 250 pM
[10]
  level of PDGFRα phosphotyrosine in U118 tumors: reduction in the level of PDGFRα phosphotyrosine
